Where “and” joins values, the source holds several entries; their conditions need not be identical. Equal values may be shown once.
Target: T1, Lanosterol synthase (Homo sapiens, UniProt P48449)
T1 sequence (P48449 whole entry): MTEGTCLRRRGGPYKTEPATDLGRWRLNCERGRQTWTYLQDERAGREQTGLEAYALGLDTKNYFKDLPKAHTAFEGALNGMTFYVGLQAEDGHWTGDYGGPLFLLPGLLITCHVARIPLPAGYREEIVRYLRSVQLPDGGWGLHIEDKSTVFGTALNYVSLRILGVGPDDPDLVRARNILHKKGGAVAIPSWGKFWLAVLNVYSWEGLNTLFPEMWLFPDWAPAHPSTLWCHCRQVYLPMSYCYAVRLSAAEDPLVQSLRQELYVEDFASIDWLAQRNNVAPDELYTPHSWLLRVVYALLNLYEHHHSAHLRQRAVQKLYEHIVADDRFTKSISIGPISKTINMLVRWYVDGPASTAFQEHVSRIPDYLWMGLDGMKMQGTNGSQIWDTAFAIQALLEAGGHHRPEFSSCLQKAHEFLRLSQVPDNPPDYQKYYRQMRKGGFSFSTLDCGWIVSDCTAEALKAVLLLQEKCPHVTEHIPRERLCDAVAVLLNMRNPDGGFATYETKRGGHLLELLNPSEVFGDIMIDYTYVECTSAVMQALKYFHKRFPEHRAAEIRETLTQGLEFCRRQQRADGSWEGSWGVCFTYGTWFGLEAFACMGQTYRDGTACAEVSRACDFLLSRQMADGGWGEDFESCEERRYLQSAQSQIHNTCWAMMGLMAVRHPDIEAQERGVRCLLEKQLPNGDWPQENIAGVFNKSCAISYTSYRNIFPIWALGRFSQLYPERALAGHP
Assay: Inhibition of oxidosqualene cyclase

IC50 [nM]	Compound
6.46	C=CCN(C[C@H]1C[C@@H]1COc1ccc(C(=O)c2ccc(Br)cc2)cc1)C1CC1
28.8	CN(CCCO)CCCCCCOc1ccc(C(=O)c2ccc(Br)cc2)cc1
19.5	C=CCN(C)CCCCCCOc1ccc2c(c1)c(C)nn2C

Target: not listed separately
Assay: Inhibition of squalene-hopene cyclase

Compound	pIC50
CN(CCCCCCOC1CCN(C(=O)c2ccc(F)cc2)CC1)C1CC1	6.12
C=CCN(C)CCCCCCOc1ccc(C(=O)c2ccc(Br)cc2)cc1	7.02
CN(CCCO)CCCCCCOc1ccc(C(=O)c2ccc(Br)cc2)cc1	6.55
CN(C[C@H]1C[C@@H]1COc1ccc(C(=O)c2ccc(Br)cc2)cc1)C1CC1	7.21
C=CCN(C)C/C=C/COc1ccc(C(=O)c2ccc(Br)cc2)cc1	7.4
C=CCN(C)C/C=C/COc1ccc(-c2nsc3cc(Br)ccc23)cc1	6.89
C=CCN(C)C/C=C/COc1ccc2c(-c3ccc(Br)cc3)csc2c1	7.12
C=CCN(C)CCCCCCOC1CCN(C(=O)c2ccc(F)cc2)CC1	5.92
C=CCN(C)CCCCCCOc1ccc2c(c1)CON=C2c1ccc(Br)cc1	6.76

Continued, values first:

pIC50	Compound
7.3	CN(C[C@H]1C[C@@H]1COc1ccc(C(=O)c2ccc(Br)cc2)c(F)c1)C1CC1
7.42	CN(CCCCCCOc1ccc(C(=O)c2ccc(Br)cc2)c(F)c1)C1CC1
7.12	C=CCN(C)CCCCCCOc1ccc2c(-c3ccc(Br)cc3)noc2c1
6.54 and 6.48	C=CCN(C)CCCCCCOc1ccc2c(c1)c(C)nn2C
7.31	C=CCN(C)C/C=C/COc1ccc2c(-c3ccc(Br)cc3)noc2c1

Source: ChEMBL document CHEMBL1140957, “GRIND-based 3D-QSAR to predict inhibitory activity for similar enzymes, OSC and SHC” (Eur J Med Chem, 2008)
